Calls of active or inactive are those of the source. The rule behind the calls is not given here.
Legend:
[1] = test system: Spodoptera littoralis; test: Antifeedant activity against newly ecdysed fifth-instar larval stage of Spodoptera littoralis in compound-pretreated lettuce leaf disks assessed as consumed area of leaf disks measured at 30 min intervals for 4-5 hr post-drug exposure by choice test; assay type: functional, organism-based
[2] = test system: Spodoptera littoralis; test: Insecticidal activity against newly ecdysed fifth-instar larval stage of Spodoptera littoralis in compound-pretreated lettuce leaf disks assessed as mortality at 3 hr post-drug exposure; assay type: functional
[3] = test system: Spodoptera littoralis; test: Antifeedant activity against newly ecdysed fifth-instar larval stage of Spodoptera littoralis in compound-pretreated lettuce leaf disks assessed as consumed area of leaf disks at 10 ug/cm'2 measured at 30 min intervals for 4-5 hr post-drug exposure by choice test; assay type: functional
[4] = test system: Spodoptera littoralis; test: Antifeedant activity against newly ecdysed fifth-instar larval stage of Spodoptera littoralis in compound-pretreated lettuce leaf disks assessed as consumed area of leaf disks at 1 ug/cm'2 measured at 30 min intervals for 4-5 hr post-drug exposure by choice test; assay type: functional
[5] = test system: Spodoptera littoralis; test: Antifeedant activity against newly ecdysed fifth-instar larval stage of Spodoptera littoralis in compound-pretreated lettuce leaf disks assessed as consumed area of leaf disks at 0.1 ug/cm'2 measured at 30 min intervals for 4-5 hr post-drug exposure by choice test; assay type: functional

For `CCC(C)C(=O)OC` (stereo in doubt; 54), the Activity [1] was “inactive” and the LD100 [2] was “inactive”.

With `CC(=O)OC1CCOC1` (racemic) the Activity [1] was “inactive” and the LD100 [2] was “inactive”.

Compound `CC(=O)O[C@H]1[C@H](OC(=O)c2ccccc2)[C@@]2(C)[C@@H](OC(=O)c3ccccc3)C[C@@H]3[C@@H](OC(C)=O)[C@]2(OC3(C)C)[C@@](C)(O)[C@H]1O` [2BETA,3BETA,4BETA,TRIHYDROXYCELARBICO] has an FR50 [3] of 0.24 and an FR50 [4] of 0.44.

`CC(=O)O[C@H]1CC[C@](C)(O)[C@]23OC(C)(C)[C@H](C[C@H](OC(=O)c4ccccc4)[C@]12OC(C)=O)[C@H]3OC(C)=O` was tested, and the FR50 [3] was 0.11, the FR50 [4] was 0.12 and the FR50 [5] was 0.4.

With TRIPHENYLSTANNYL ACETATE the FR50 [3] was 0.37.

In the case of `CC(=O)O[C@H]1[C@H](OC(=O)c2ccccc2)[C@@]2(C)[C@@H](OC(=O)c3ccccc3)C[C@@H]3[C@@H](O)[C@]2(OC3(C)C)[C@@](C)(O)[C@H]1O`, the FR50 [3] is reported as 0.6.

In the case of `CC(=O)O[C@@H]1[C@H]2C[C@H](OC(=O)c3ccccc3)[C@]3(C)[C@@H](OC(=O)c4ccccc4)[C@H](C(C)=O)[C@H](C(C)=O)[C@](C)(O)[C@@]13OC2(C)C`, the FR50 [3] is reported as 0.65.

`CC(=O)O[C@@H]1[C@H]2C(=O)[C@@H](OC(=O)c3ccccc3)[C@]3(O)[C@@H](OC(C)=O)[C@@H](C(C)=O)CC(C)[C@@]13OC2(C)C` (stereo partly specified) showed an FR50 [3] of 0.41.

In the case of `CC(=O)O[C@H]1C[C@](C)(O)[C@]23OC(C)(C)[C@H]([C@@H](C(C)=O)[C@@H](OC(=O)c4ccccc4)[C@]2(OC(C)=O)[C@H]1OC(=O)c1ccccc1)[C@H]3OC(C)=O`, the FR50 [3] is reported as 0.35.

Work on `CC(=O)O[C@H]1C[C@](C)(O)[C@]23OC(C)(C)[C@H](C(=O)[C@@H](OC(=O)c4ccccc4)[C@]2(OC(C)=O)[C@H]1OC(=O)c1ccccc1)[C@H]3OC(C)=O` yielded an LD100 [2] of 0.1 microg/cm2.

Work on `COCCCC[C@@H]1[C@@H]2[C@@H](OC(C)=O)[C@@]3(OC2(C)C)[C@@](OC(C)=O)([C@@H](OC(=O)c2ccccc2)CC[C@]3(C)O)[C@@H]1OC(=O)c1ccccc1` yielded an FR50 [3] of 0.45.

`CC(=O)O[C@H]1CCC(C)[C@]23OC(C)(C)[C@H]([C@@H](O)[C@H](OC(=O)c4ccccc4)[C@]12OC(C)=O)[C@H]3OC(C)=O` (stereo partly specified) was tested, and the FR50 [3] was 0.05 and the FR50 [4] was 0.25.

`CC(=O)O[C@H]1C[C@@H]2[C@@H](OC(=O)c3cccnc3)[C@@]3(OC2(C)C)[C@@]1(C)[C@@H](OC(=O)c1ccccc1)CC[C@]3(C)O` was tested, and the FR50 [3] was 0.68.

`CC(=O)O[C@@H]1[C@@H]2[C@@H](OC(C)=O)[C@@]3(OC2(C)C)[C@](O)([C@@H]1OC(=O)c1ccccc1)[C@@H](OC(C)=O)[C@@H](C(C)=O)C[C@]3(C)O` was tested, and the FR50 [3] was 0.16 and the FR50 [4] was 0.66.

Compound `CC(=O)O[C@@H]1[C@@H]2[C@@H](OC(C)=O)[C@@]3(OC2(C)C)[C@@](OC(C)=O)([C@@H](OC(=O)c2ccccc2)CC[C@]3(C)O)[C@@H]1OC(=O)c1ccccc1` has an FR50 [3] of 0.24 and an FR50 [4] of 0.58.

Compound `CC(=O)O[C@@H]1[C@@H](O)[C@@H]2[C@@H](OC(=O)c3cccnc3)[C@@]3(OC2(C)C)[C@@]1(C)[C@@H](OC(=O)c1ccccc1)CC[C@]3(C)O` has an FR50 [3] of 0.74.

`CC(=O)OC1CCOC1` (single isomer, unassigned; (+)) was tested, and the Activity [1] was “inactive” and the LD100 [2] was “inactive”.

In the case of `O=C(OC1CCOC1)c1cc([N+](=O)[O-])cc([N+](=O)[O-])c1` (racemic), the Activity [1] is reported as “inactive” and the LD100 [2] is reported as “inactive”.

Compound `CC(=O)O[C@@H]1[C@H]2C[C@H](OC(=O)c3ccccc3)[C@]3(C)[C@@H](OC(=O)c4ccccc4)[C@H](C(C)=O)C[C@](C)(O)[C@@]13OC2(C)C` has an FR50 [3] of 0.35.

In the case of `CC(=O)O[C@@H]1[C@H]2C[C@H](OC(=O)c3ccccc3)[C@]3(OC(C)=O)[C@@H](OC(C)=O)[C@@H](C(C)=O)CC(C)[C@@]13OC2(C)C` (stereo partly specified), the FR50 [3] is reported as 0.36.

Work on `CC(=O)O[C@H]1[C@H](OC(=O)c2ccccc2)[C@@]2(C)[C@@H](OC(=O)c3ccccc3)C[C@H]3C[C@]2(OC3(C)C)[C@@](C)(O)[C@H]1O` yielded an FR50 [3] of 0.61.

For `O=C(OC1CCOC1)c1ccccc1` (racemic), the Activity [1] was “inactive” and the LD100 [2] was “inactive”.

In the case of `O=C(OCC1CCCO1)c1cc([N+](=O)[O-])cc([N+](=O)[O-])c1` (stereo unspecified), the Activity [1] is reported as “inactive” and the LD100 [2] is reported as “inactive”.

`CC(=O)O[C@@H]1[C@H]2C[C@H](OC(=O)c3ccccc3)[C@]3(C)[C@@H](OC(=O)c4ccccc4)[C@H](C(C)=O)[C@H](O)C(C)[C@@]13OC2(C)C` (stereo partly specified) gave an FR50 [3] of 0.63.

`CC(=O)O[C@H]1[C@@H]2[C@@H](O)[C@@]3(OC2(C)C)[C@](C)([C@H]1OC(=O)c1ccccc1)[C@@H](OC(=O)c1ccccc1)[C@H](OC(C)=O)[C@H](OC(C)=O)[C@]3(C)O` was tested, and the FR50 [3] was 0.38.

With `CC(=O)OCC1CCOC1` (stereo unspecified) the Activity [1] was “inactive” and the LD100 [2] was “inactive”.

With `C/C=C(/C)C(=O)O[C@@H]1[C@@H]2[C@@H](OC(C)=O)[C@@]3(OC2(C)C)[C@@](OC(C)=O)([C@@H](OC(=O)c2ccccc2)CC[C@]3(C)O)[C@@H]1OC(=O)c1ccccc1` the FR50 [3] was 0.12 and the FR50 [4] was 0.29.

`CC(=O)O[C@H]1C[C@](C)(O)[C@]23OC(C)(C)[C@H]([C@@H](C(C)=O)[C@@H](OC(=O)c4ccccc4)[C@]2(OC(C)=O)[C@H]1OC(C)=O)[C@H]3OC(C)=O` was tested, and the FR50 [3] was 0.05, the FR50 [4] was 0.24 and the FR50 [5] was 0.4.

For `COCCCC[C@@H]1[C@@H]2[C@@H](OC(C)=O)[C@@]3(OC2(C)C)[C@](OC(C)=O)([C@@H]1OC(=O)c1ccccc1)[C@@H](O)CC[C@]3(C)O`, the FR50 [3] was 0.08, the FR50 [4] was 0.23 and the FR50 [5] was 0.57.

`CC(=O)O[C@H]1[C@H](OC(=O)c2ccccc2)[C@@]2(C)[C@@H](O/C=C/c3ccccc3)C[C@@H]3[C@@H](OC(C)=O)[C@]2(OC3(C)C)[C@@](C)(O)[C@H]1O` gave an FR50 [3] of 0.76.

Compound `CC(=O)O[C@@H]1[C@H]2C[C@H](OC(=O)c3ccccc3)[C@]3(O)[C@@H](OC(C)=O)[C@@H](C(C)=O)CC(C)[C@@]13OC2(C)C` (stereo partly specified) has an FR50 [3] of 0.19 and an FR50 [4] of 0.54.

With `CC(=O)O[C@H]1C[C@](C)(O)[C@]23OC(C)(C)[C@H]([C@@H](OC(C)=O)[C@@H](OC(=O)c4ccccc4)[C@]2(OC(C)=O)C1)[C@H]3OC(C)=O` the FR50 [3] was 0.1, the FR50 [4] was 0.18 and the FR50 [5] was 1.1.

In the case of `OCC1CCOC1` (stereo unspecified), the Activity [1] is reported as “inactive” and the LD100 [2] is reported as “inactive”.

With `C/C=C(/C)C(=O)O[C@@H]1[C@@H]2[C@@H](OC(C)=O)[C@@]3(OC2(C)C)[C@@](OC(C)=O)([C@@H](OC(C)=O)CC[C@]3(C)O)[C@@H]1OC(=O)c1ccccc1` the FR50 [3] was 0.06 and the FR50 [4] was 0.2.

`CC(=O)O[C@@H]1[C@@H]2[C@@H](OC(C)=O)[C@@]3(OC2(C)C)[C@@](OC(C)=O)([C@@H](OC(C)=O)CC[C@]3(C)O)[C@@H]1OC(=O)c1ccccc1` showed an FR50 [3] of 0.03, an FR50 [4] of 0.2 and an FR50 [5] of 0.64.

For `CCC(C)C(=O)OC` (single isomer, unassigned; (+)), the Activity [1] was “inactive” and the LD100 [2] was “inactive”.

In the case of `CC(=O)OCC1CCCO1` (stereo unspecified), the Activity [1] is reported as “inactive” and the LD100 [2] is reported as “inactive”.

In the case of `CC(=O)O[C@H]1CCC(C)[C@]23OC(C)(C)[C@H]([C@@H](C(C)=O)[C@H](OC(=O)c4ccccc4)[C@]12OC(C)=O)[C@H]3OC(C)=O` (stereo partly specified), the FR50 [3] is reported as 0.04 and the FR50 [4] is reported as 0.44.

In the case of `CC(=O)O[C@@H]1[C@@H]2[C@@H](OC(C)=O)[C@]3(OC2(C)C)C(C)C[C@H](C(C)=O)[C@H](OC(C)=O)[C@@]3(OC(C)=O)[C@H]1OC(=O)c1ccccc1` (stereo partly specified), the FR50 [3] is reported as 0.07 and the FR50 [4] is reported as 0.53.

For `OC1CCOC1` (stereo in doubt; 46), the Activity [1] was “inactive” and the LD100 [2] was “inactive”.

Work on `CC(=O)O[C@@H]1[C@@H]2[C@@H](OC(C)=O)[C@]3(OC2(C)C)C(C)C[C@H](C(C)=O)[C@H](OC(C)=O)[C@@]3(O)[C@H]1OC(=O)c1ccccc1` (stereo partly specified) yielded an FR50 [3] of 0.13 and an FR50 [4] of 0.71.

In the case of `CC[C@@H]1CCC(=O)O[C@H]2[C@H](OC(C)=O)[C@H](OC(C)=O)[C@@]3(OC(C)=O)[C@H](OC(C)=O)C(=O)[C@@H]4[C@@H](OC(C)=O)[C@]3(O[C@@]4(C)COC(=O)c3ccccc31)[C@@]2(C)O` [ORTHOSPHENINE], the LD100 [2] is reported as 0.01 microg/cm2.

Work on `CC(=O)O[C@@H]1[C@H]2[C@@H](OC(=O)c3ccccc3)[C@@H](OC(=O)c3ccccc3)[C@]3(OC(C)=O)[C@@H](OC(=O)c4ccccc4)CC[C@](C)(O)[C@@]13OC2(C)C` yielded an FR50 [3] of 0.76.

For `CC(=O)O[C@H]1C[C@](C)(O)[C@]23OC(C)(C)[C@H]([C@@H](C(C)=O)[C@@H](OC(=O)c4ccccc4)[C@]2(OC(C)=O)[C@H]1OC(=O)c1ccccc1)[C@H]3O`, the FR50 [3] was 0.1, the FR50 [4] was 0.19 and the FR50 [5] was 1.02.

Work on `CC(=O)O[C@H]1CC[C@](C)(O)[C@]23OC(C)(C)[C@H]([C@@H](OC(=O)c4ccccc4)[C@@H](OC(=O)c4ccccc4)[C@]12OC(C)=O)[C@H]3OC(C)=O` yielded an FR50 [3] of 0.15 and an FR50 [4] of 0.4.

For `OC1CCOC1` (racemic), the Activity [1] was “inactive” and the LD100 [2] was “inactive”.

In the case of `CC(=O)O[C@H]1C[C@](C)(O)[C@]23OC(C)(C)[C@H](C(=O)[C@@H](OC(=O)c4ccccc4)[C@]2(OC(C)=O)[C@H]1OC(C)=O)[C@H]3OC(C)=O`, the LD100 [2] is reported as 1 microg/cm2.

With `O=C(OCC1CCCO1)c1ccccc1` (stereo unspecified) the Activity [1] was “inactive” and the LD100 [2] was “inactive”.

Compound `CC(=O)O[C@@H]1[C@H]2C[C@H](OC(=O)c3ccccc3)[C@]3(C)[C@@H](OC(=O)c4ccccc4)[C@H](O)[C@H](C(C)=O)[C@](C)(O)[C@@]13OC2(C)C` has an FR50 [3] of 0.56.

For `OCC1CCCO1` (stereo unspecified), the Activity [1] was “inactive” and the LD100 [2] was “inactive”.

`CC1(C)O[C@]23C[C@@H]1CC[C@]2(C)CC[C@H](O)[C@@]3(C)O` showed an FR50 [3] of 0.52.

Compound `CC(=O)O[C@H]1[C@@H]2[C@@H](OC(=O)c3cccnc3)[C@@]3(OC2(C)C)[C@@](C)([C@@H](OC(=O)c2ccccc2)CC[C@]3(C)O)[C@@H]1OC(C)=O` has an FR50 [3] of 0.04, an FR50 [4] of 0.15 and an FR50 [5] of 0.45.
